# Measurements published in patent US20120244230A1, “POLYVALENT POLYNUCLEOTIDE NANOPARTICLE CONJUGATES AS DELIVERY VEHICLES FOR A CHEMOTHERAPEUTIC AGENT” (priority 2009, published 2012).
# pIC50: −log10 of the molar value.
# What was measured:
# [1] = system: U2OS cells; experiment: MTT cytotoxicity assay, U2OS; type: cell-based, human; settings: 72 hour treatment
# Method: (§1) Human cervical cancer HeLa, human osteosarcoma U2OS, human prostate PC3 cell lines were procured from the ATCC. A549 lung carcinoma cells were obtained from Prof. David E. Root, Whitehead Institute for Biomedical Research. HeLa, U2OS, and A549 Cells were grown at 37° C. in 5% CO2 in DMEM medium supplemented with 10% fetal bovine serum and 1% penicillin/streptomycin. PC3 cells were grown at 37° C. in 5% CO2 in RPMI supplemented with 10% fetal bovine serum and 1% penicillin/streptomycin. Cells were passed every 3 to 4 days and restarted from frozen stocks upon reaching pass number 20.
# (§2) In order to investigate the efficacy of Pt-DNA-Au NPs, their ability to kill cancer cells of various origin was measured. […] Cells were seeded on a 96 well plate in 100 μL media and incubated for 24 hours. The cells were then treated with Pt-DNA-Au NP, 1, or cisplatin, separately at varying concentrations and incubated for 72 hours at 37° C. Medium was removed, cells were washed with PBS and then incubated with cell culture medium containing 20% 3-(4,5-dimethylthiazol-2-yl)-2,5-diphenyltetrazolium bromide (MTT). […] Cells were further incubated overnight and the absorbance was measured at 620 nm using a BioTek Synergy HT multi-detection microplate plate reader. […]
# [2] = system: PC3 cells; experiment: MTT cytotoxicity assay, PC3
# Method: as §1, §2
# [3] = Cyclic voltammetry, reduction potential of the Pt(IV) complex; type: physicochemical; settings: Ag/AgCl reference, 25° C.
# Method: The conjugate was designed to release a cytotoxic dose of cisplatin upon intracellular reduction. An ideal Pt(IV) complex should be sufficiently stable to travel through the blood stream until it reaches a tumor cell without decomposition. Once inside the cell, however, it should have an appropriate reduction potential such that it will be reduced and release its cytotoxic payload. Electrochemical measurements were made at 25° C. on a EG&G PAR Model 263 Potentiostat/Galvanostat with electrochemical analysis software 270 and a three electrode set-up comprising a glassy carbon working electrode, platinum wire auxiliary electrode and a Ag/AgCl reference electrode. The electrochemical data were uncorrected for junction potentials. KCl was used as a supporting electrolyte.
# [4] = system: A549 cells
# Method: as §1, §2
SMILES,pIC50 [1],"pIC50 ([2]; PC3 cells, 72 hour treatment, MTT)","reduction potential ([3]; pH 6.0, phosphate buffer-0.1 M KCl) [V]","reduction potential ([3]; pH 7.4, phosphate buffer-0.1 M KCl, extrapolated to 0.0 mV s-1 scan rate) [V]",cytotoxicity (in words) [2],cytotoxicity (in words) [4]
"N.N.[Cl][Pt][Cl] [cisplatin, cis-diamminedichloroplatinum(II), reference compound]",5.29,5.34,–,–,–,–
"[NH2][Pt]([NH2])([OH])([Cl])([Cl])[O]C(=O)CCC(=O)O [Compound 1, c,c,t-[Pt(NH3)2Cl2(OH)(O2CCH2CH2CO2H)]]",–,–,−0.42,−0.49,did not show any significant killing,did not show any significant killing
